Laboratory results published in ChEMBL document CHEMBL1201862, “PubChem BioAssay data set” (2004).
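Cultured in 96-well plates, cells were exposed to test compound for 48 hours across five concentrations. GI50 marks 50% less growth.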 Calls of active or inactive are those of the source. No stated cut-off is given here; in the data, active = GI50 up to about 1.1 µM and inactive = higher.

Experiments:
Assay in all cases: growth of human tumour cells (NCI), 48 h
LOX IMVI = system: LOX IMVI
NCI-H23 = system: NCI-H23
SR = system: SR
RPMI-8226 = system: RPMI-8226
SF-268 = system: SF-268
MDA-MB-435 = system: MDA-MB-435
SK-OV-3 = system: SK-OV-3
HOP-92 = system: HOP-92
SF-539 = system: SF-539
CCRF-CEM = system: CCRF-CEM
HOP-62 = system: HOP-62
HCT-15 = system: HCT-15
M14 = system: M14
UACC-62 = system: UACC-62
SK-MEL-2 = system: SK-MEL-2
KM12 = system: KM12
HT-29 = system: HT-29
SK-MEL-5 = system: SK-MEL-5
T47D = system: T47D
Hs-578T = system: Hs-578T

Structure (SMILES) | GI50 (LOX IMVI) | GI50 (NCI-H23) | GI50 (SR) | GI50 (RPMI-8226) | GI50 (SF-268) | GI50 (MDA-MB-435) | GI50 (SK-OV-3) | GI50 (HOP-92) | GI50 (SF-539) | GI50 (CCRF-CEM) | GI50 (HOP-62) | GI50 (HCT-15) [µM] | GI50 (M14) | GI50 (UACC-62) | GI50 (SK-MEL-2) | GI50 (KM12) | GI50 (HT-29) | GI50 (SK-MEL-5) | GI50 (T47D) | GI50 (Hs-578T)
COc1ccc(C(=O)c2sc(Nc3ccc(Cl)cc3)nc2N)cc1 | 9.42 µM (inactive) | 13.6 µM (inactive) | 1.93 µM (inactive) | 4.16 µM (inactive) | 8.15 µM (inactive) | 2.2 µM (inactive) | 6.35 µM (inactive) | 35.3 µM (inactive) | 14 µM (inactive) | 2.52 µM (inactive) | 7.91 µM (inactive) | 3.27 | > 63.8 µM (inactive) | 19.3 µM (inactive) | 17 µM (inactive) | 4.48 µM (inactive) | 4.43 µM (inactive) | 18.3 µM (inactive) | 37.6 µM (inactive) | 11.2 µM (inactive)
C/C(=N\Nc1nc2ccccc2o1)c1ccncn1 | 0.124 µM (active) | 0.36 µM (active) | 0.0647 µM (active) | 0.109 µM (active) | 0.132 µM (active) | 0.247 µM (active) | 0.294 µM (active) | 0.124 µM (active) | 0.258 µM (active) | 0.0481 µM (active) | 0.228 µM (active) | 0.0476 | 0.126 µM (active) | 0.28 µM (active) | 0.277 µM (active) | 0.163 µM (active) | 0.0356 µM (active) | 0.181 µM (active) | 0.0845 µM (active) | 0.955 µM (active)
CC1CC(=O)Nc2nc3ccccc3n21 (centres undefined) | > 100 µM (inactive) | > 100 µM (inactive) | > 100 µM (inactive) | > 100 µM (inactive) | > 100 µM (inactive) | > 100 µM (inactive) | > 100 µM (inactive) | > 100 µM (inactive) | > 100 µM (inactive) | > 100 µM (inactive) | > 100 µM (inactive) | > 100 | > 100 µM (inactive) | > 100 µM (inactive) | > 100 µM (inactive) | > 100 µM (inactive) | > 100 µM (inactive) | > 100 µM (inactive) | > 100 µM (inactive) | > 100 µM (inactive)
C1=N\CCNCC/N=C/c2ccccc2OCc2cccc(n2)COc2ccccc2/1 | 5.31 µM (inactive) | 12.9 µM (inactive) | 4.06 µM (inactive) | 3.77 µM (inactive) | 12.9 µM (inactive) | 3.86 µM (inactive) | 43.3 µM (inactive) | 26.1 µM (inactive) | 2.72 µM (inactive) | 3.33 µM (inactive) | 12.4 µM (inactive) | 4.69 | 8.02 µM (inactive) | 6.15 µM (inactive) | > 44.5 µM (inactive) | 20.5 µM (inactive) | 10.7 µM (inactive) | 12.6 µM (inactive) | 17.2 µM (inactive) | 9.51 µM (inactive)
[Se]=P(c1ccccc1)(c1ccccc1)c1ccc(C(c2ccccc2)=P(c2ccccc2)(c2ccccc2)c2ccccc2)cc1 | 0.807 µM (active) | 0.891 µM (active) | 0.415 µM (active) | 0.313 µM (active) | 0.514 µM (active) | 0.671 µM (active) | 2.05 µM (inactive) | 0.357 µM (active) | 1.46 µM (inactive) | 0.495 µM (active) | 1.13 µM (inactive) | 4.55 | 1.54 µM (inactive) | 1.02 µM (active) | 0.957 µM (active) | 0.439 µM (active) | 0.406 µM (active) | 0.505 µM (active) | 0.537 µM (active) | 0.435 µM (active)
COc1ccccc1NCc1nnc(CCCCCCCCc2nnc(CNc3ccccc3OC)o2)o1 | > 100 µM (inactive) | > 100 µM (inactive) | > 100 µM (inactive) | > 100 µM (inactive) | > 100 µM (inactive) | > 100 µM (inactive) | > 100 µM (inactive) | > 100 µM (inactive) | – | > 100 µM (inactive) | > 100 µM (inactive) | > 100 | > 100 µM (inactive) | > 100 µM (inactive) | > 100 µM (inactive) | > 100 µM (inactive) | > 100 µM (inactive) | > 100 µM (inactive) | > 100 µM (inactive) | > 100 µM (inactive)
CCN(CC)c1ccc2cc(C(N)=O)c(=N)oc2c1 | 29.5 µM (inactive) | 42.8 µM (inactive) | 14.6 µM (inactive) | 96.6 µM (inactive) | 42.3 µM (inactive) | 30.9 µM (inactive) | 36.6 µM (inactive) | 24 µM (inactive) | 4.15 µM (inactive) | 31.2 µM (inactive) | 38.6 µM (inactive) | 35 | 34.4 µM (inactive) | 30.8 µM (inactive) | 21.3 µM (inactive) | 31 µM (inactive) | 51.5 µM (inactive) | 32.5 µM (inactive) | 23.7 µM (inactive) | 16.3 µM (inactive)
